Assay results taken from patent US20180188258A1, “MARKER FOR HETEROGENEITY OF CANCER TISSUE, AND USE THEREOF” (Keio University, priority 2015, published 2018).

Test system: cancer tissue of the Mix mouse (MDA-MB-231 + HCC1937 cells) and of the 231 mouse (MDA-MB-231 cells)
Assay: Study on therapeutic effects by anticancer drug in tumor-bearing mice (tumor volume over time)
Format: in vivo
Conditions: Paclitaxel 3 mg/kg intraperitoneally once a week; Mix mouse compared with 231 mouse; BALB/c-nu; control physiological saline
Text: The MDA-MB-231 cell line and the HCC1937 cell line were mixed so that the cell number of the HCC1937 cell line was larger than the cell number of the MDA-MB-231 cell line, preferably the cell number of HCC1937 cell line:cell number of MDA-231 cell line was a ratio of 2:1 or more, for example, 9:1. Then, the cell mixture was transplanted into the fourth mammary gland adipose tissue of an immunodeficient mouse (4 weeks old, female, BALB/c-nu) to thereby construct a tumor-bearing mouse (hereinafter, sometimes referred to as “Mix mouse”). Only the MDA-MB-231 cell line and only the HCC1937 cell line were respectively transplanted into the fourth mammary gland adipose tissue of an immunodeficient mouse (4 weeks old, female, BALB/c-nu) to thereby construct tumor-bearing mice (hereinafter, sometimes referred to as “231 mouse” and “1937 mouse”, respectively) as controls.
Paclitaxel (3 mg/kg) was administered intraperitoneally once a week to Mix mouse and 231 mouse constructed in the same manner as in Experimental Example 2, the tumor diameter was measured with time, and temporal changes in tumor volume were observed (n=5 in each case). As controls, temporal changes in tumor volume were also observed for the groups (control groups) in which physiological saline was administered intraperitoneally in place of paclitaxel (n=5 in each case). […]

With CC(=O)O[C@H]1C(=O)[C@@]2(C)[C@H]([C@H](OC(=O)c3ccccc3)[C@]3(O)C[C@H](OC(=O)[C@H](O)[C@@H](NC(=O)c4ccccc4)c4ccccc4)C(C)=C1C3(C)C)[C@]1(OC(C)=O)CO[C@@H]1C[C@@H]2O [Paclitaxel] the “temporal changes in tumor volume (resistance of the cancer tissue to paclitaxel)” value was “the cancer tissue of the Mix mouse has higher resistance to paclitaxel than the cancer tissue of the 231 mouse”.
